Assay [1] deals with Antikörperbildung gegen Schafserythrozyten (Plaquebildende Milzzellen). Briefly: Antibody formation against sheep erythrocytes (JERNE plaque test, IgM plaque-forming spleen cells) in X-irradiated, bone-marrow-transplanted mice. The class given is in vivo, AB/Bln.-Mäuse. The text has this:
(§1) Zum Nachweis der immunologischen Wirkungen wurden folgende Modelle verwendet: - "Kolonien - Bildung" ("Kolonien" - Bildungstest ) durch menschliche Knochenmarkzellen nach Kultivierung der Zellen mit dem menschlichen Granulocyten - Makrophagen - "Kolonien" - stimulierenden Faktor (hGM-CSF) und Spleninderivaten. - die Antikörperbildung gegen Schafserythrozyten ( Plaquebildende Milzzellen ) durch Ab/Bln.-Mäuse nach Röntgenbestrahlung (Tabelle 2).
Es wurden drei Monate alte AB/Bln.-Mäuse einmalig mit 800 cGy röntgenbestrahlt. Danach wurden die Tiere in drei Gruppen aufgeteilt und folgendermaßen weiterbehandelt: • Gruppe 1: Nach der Bestrahlung wurde den Tieren Knochenmarkzellen von Tieren des gleichen Inzuchtstammes transplantiert (Injektion von je 5 mal 10⁶ Knochenmarkzellen pro Tier). […] In differenten Zeitabständen nach der Bestrahlung und während der DAc-hSP5-Behandlung wurde mittels des JERNE-Plaque-Testes die Fähigkeit der Tiere untersucht, Antikörper zu bilden. • Gruppe 2: Gleiche Behandlung der Tiere wie in Gruppe 1, jedoch keine Therapie der Tiere mit DAc-hSP5. • Gruppe 3: Alleinige Röntgenbestrahlung der Tiere; keine Transplantation syngener Knochenmarkzellen, keine Therapie der Tiere mit DAc-hSP5.
Fünf Tage vor der Bestimmung der IgM Plaque-bildenden Milzzellen (Tage, angegeben in Tabelle 2) wurden die Tiere mit 5 x 10⁸ Schafserythrozyten immunisiert (intaperitoneale Applikation). Methodik: Eckert et.al., Biomed. Biochem. Acta, 1985, (44), 1239.

In assay [2] the test system is menschliche Knochenmarkzellen. Briefly: Colony formation test: human bone marrow cells cultured with hGM-CSF and splenin derivatives. The class given is cell-based. To be noted: human bone marrow cells with hGM-CSF; Tab.1, Nr.6.
Excerpt: as §1
Stimulierung des Wachstums und der Reifung von Knochenmarkstammzellen (in vitro)
Die Anzahl der gebildeten "Kolonien" ist dabei ein Maß für die mitotische bzw. differenzierende Wirkung der Faktoren auf die Knochenmarkzellen. Da Thymopentin in diesem Testsystem (Tab.1, Nr.6) keine Wirkung zeigte, ist anzunehmen, daß die immunstimulierende Wirkung von Timunox nicht über eine Wirkung auf Stammzellen des Knochenmarks zustande kommt.

Turning to “(N^α-Acetyl)-arginyl-(N^ε-acetyl)-lysylalanylvalyltyrosin [DAc-hSP5]”, the “Effekt auf die Antikörperbildung” value in assay [1] (1 µg per animal i.p. three times weekly) is reported as “nicht wirksam”; in assay [1] (2 µg per animal i.p. three times weekly), “nicht wirksam”; in assay [1] (4 µg per animal i.p. three times weekly), “nicht wirksam”; in assay [1] (8 µg per animal i.p. three times weekly) it was “suboptimal”; in assay [1] (10 ug per animal i.p. three times weekly), “optimalen Effekt”; in assay [1] (20 µg per animal i.p. three times weekly), “Effekt wie nach der von 10 ug”. In addition, the “Effekt auf die Antikörperbildung” value in assay [1] (50 µg per animal i.p. three times weekly) is listed as “Effekt wie nach der von 10 ug”. Further, the “Antikörperbildung (IgM Plaque-bildende Milzzellen)” value in assay [1] (800 cGy, syngeneic bone marrow transplant, 10 µg per animal i.p. three times weekly, Tabelle 2) was “beschleunigt zu einer normalen Antikörperbildung befähigt”.

With Thymopentin, the “Wirkung im "Kolonien"-Bildungstest (Anzahl der gebildeten "Kolonien")” value in assay [2] is recorded as “keine Wirkung”.

The values above are taken from EP0410372A1, “Process for preparing human splenin derivatives” (BERLIN-CHEMIE AG, priority 1989, dated 1991).
